Assay results published in patent US20230091810A1, “FIRST-IN-CLASS OF SHMT2 AND MTHFD2 INHIBITORS AS ANTITUMOR AGENTS” (Duquesne University of the Holy Spirit, priority 2017, published 2023).
Read-outs that look alike come from different tables or passages of the source.

Tests used:
[1] = test system: RT16 (FR alpha) (CHO); assay: proliferation assay, RT16 CHO cells expressing FR alpha only; format: cell-based, Chinese hamster; details: folate-/glycine-free RPMI1640 with 25 nM leucovorin, 96 h, read-out: IC50s (SE) RT16 (FR alpha) (CHO)
Protocol: Proliferation assays were performed with engineered Chinese hamster ovary (CHO) cell lines R2 (transporter-null), PC43-10 (expresses RFC only), RT16 (FRα only), and R2/PCFT4 (PCFT only) cultured in folate-/glycine-free RPMI1640 supplemented with 25 nM leucovorin. Additional results are shown for HCT116 (colon tumor cells (CTC)), IGROV1 (epithelial ovarian cancer (EOC) cells), H460 (non-small cell lung cancer (NSCLC) cells), MIAPaCa-2 (pancreatic cancer (PaC) cells), and HPAC (PaC).
For proliferation assays with the CHO cell lines, the cells were treated with drugs (0-1 µM) in a 96-well plate (2000 cells/well) in glycine-free, nucleoside-free folate-free RPMI supplemented with 10% dialyzed fetal bovine serum, 1% penicillin/streptomycin, 2 mM L-glutamine, and 25 nM leucovorin (final volume 200 µL) over a 96 h incubation period at 37° C. with 5% CO2. The drugs were dissolved in DMSO; an equivalent amount of DMSO was added to the control (no addition) samples. To quantify viable cells, the media was removed and plates were washed once with 100 µL Dulbecco’s Phosphate-Buffered Saline (PBS), after which 100 µL PBS and 20 µL Cell Titer-blue (Promega) were added. Relative cell numbers were proportional to the fluorescence measured with a fluorescence plate reader (590 nm emission, 560 nm excitation). Background fluorescence (cell-free wells treated with Cell Titer-blue) was subtracted and these corrected values were normalized to results for cells treated in an identical manner without drugs.

[2] = test system: HCT116 cells; assay: targeted metabolomics with [2,3,3-2H]serine tracer, HCT116 cells; format: cell-based, human; details: 10 µM drug; for increase of total serine: HCT116 WT cells, relative to WT controls; for M+1 serine: WT HCT116 cells
Description: Identification of the mitochondrial enzyme target for AGF291, AGF320, and AGF347 by targeted metabolomics. […] The cells were processed for LC-MS analyses of total serine, and of M+3, M+2, M+1, and M+0 (unlabeled) serine (where M+n represents species with n deuterium atoms). The results with the drug-treated cells were compared to those for untreated cells. For WT HCT116 cells, the results were compared to those for SHMT2 KO, MTHFD2 KO, and SHMT1 KO cells (KO of SHMT2, MTHFD2, and SHMT1, respectively (20)). For H460 cells, controls included non-targeted control (NTC) and SHMT2 shRNA knockdown (KD) cells.
Targeted Metabolomics. Targeted metabolomics were performed essentially as previously described (47, 53). Briefly, cells (H460, HCT116, MIA PaCa-2) (1 million cells /dish for vehicle-treated samples, 1.5 million cells/dish for drug-treated samples) were seeded in triplicate 60 mm dishes in 5 ml of folate-free RPMI (contains glycine and unlabeled serine) supplemented with 10% dialyzed fetal bovine serum, 1% penicillin/streptomycin, 2 mM L-glutamine, and 25 nM leucovorin. Cells were allowed to adhere for 24 h. […] After 16 h, the cells were washed with PBS (3×), the media was replaced with folate- and serine-free culture media (containing glycine) supplemented with 10% dialyzed fetal bovine serine, 25 nM leucovorin, and [2,3,3-^2H]serine (250 µM), including 10 µM drug or DMSO vehicle. The cells were incubated for 24 h. All incubations were at 37° C. with 5% CO2. The media was aspirated, and cells were washed (3×) rapidly (< 30 s) with 5 mL ice-cold PBS; metabolism was quickly quenched with methanol:water (80:20) at -80° C. Cells were allowed to rock on dry ice for 10 min to cover the entire dish with 80:20 methanol:water (at -80° C.), then harvested by scraping and pipetting into 1.5 mL Eppendorf tubes. The tubes were centrifuged (4° C., 14000 RPM, 10 min) to fully extract metabolites into the methanol:water supernatant. The protein pellet was used for normalization. The supernatants were collected and analyzed by reversed-phase ion-pairing chromatography coupled with negative-mode electrospray-ionization high-resolution mass spectrometry on a stand-alone Orbitrap (ThermoFisher Exactive). Raw metabolite values were adjusted to correct for normal ion distributions and normalized to total proteins from the post-extraction pellet by solubilizing with 0.5 N NaOH and using the Folin-phenol protein method (13). Values below the limit of detection were assigned a value of 100 for normalization. Results for drug-treated and SHMT2 KD cells were normalized to vehicle-treated WT ± formate or NTC ± formate samples, as appropriate.

Row | Compound | IC50 ([1]; Cricetulus griseus, RT16) [nM] | increase of total serine [2] | M+1 serine [2] | IC50 [1] [nM]
1 | Nc1nc2ccn(CCCc3ccc(C(=O)N[C@@H](CCC(=O)O)C(=O)O)cc3)c2c(=O)[nH]1 [AGF291] | 117 | ~ 10 fold | nearly complete loss | 
2 | (2-amino-4-oxo-3,4-dihydro-5H-pyrrolo[3,2-d]pyrimidin-5-yl)butyl)-2-fluorobenzoyl)-L-glutamic acid [AGF347] |  | ~ 10 fold | nearly complete loss | 9.4
3 | Nc1nc2ccn(CCCCCc3ccc(C(=O)N[C@@H](CCC(=O)O)C(=O)O)s3)c2c(=O)[nH]1 [AGF320] |  | ~ 10 fold | nearly complete loss | 156
